From BigSolDB 2.1

COC(=O)Nc1nc2ccc(Sc3ccccc3)cc2[nH]1 showed a solubility (mole fraction) (in 1,4-dioxane, 288.15 K) of 0.0011, a solubility (mole fraction) (in 1,4-dioxane, 293.15 K) of 0.00127 and a solubility (mole fraction) (in 1,4-dioxane, 298.15 K) of 0.00145. It also gave a solubility (mole fraction) (in 1,4-dioxane, 303.15 K) of 0.00166, a solubility (mole fraction) (in 1,4-dioxane, 308.15 K) of 0.00189 and a solubility (mole fraction) (in 1,4-dioxane, 313.15 K) of 0.00214. For the same compound, the solubility (mole fraction) (in acetone, 273.15 K) was 0.000154, the solubility (mole fraction) (in acetone, 278.15 K) was 0.000167 and the solubility (mole fraction) (in acetone, 283.15 K) was 0.00018. The solubility (mole fraction) (in acetone, 288.15 K) was 0.000194, the solubility (mole fraction) (in acetone, 293.15 K) was 0.000209 and the solubility (mole fraction) (in acetone, 298.15 K) was 0.000225. It also gave a solubility (mole fraction) (in acetone, 303.15 K) of 0.000241, a solubility (mole fraction) (in acetone, 308.15 K) of 0.00026 and a solubility (mole fraction) (in acetone, 313.15 K) of 0.00028. The solubility (mole fraction) (in acetonitrile, 273.15 K) was 1.31e-05, the solubility (mole fraction) (in acetonitrile, 278.15 K) was 1.53e-05 and the solubility (mole fraction) (in acetonitrile, 283.15 K) was 1.79e-05. For the same compound, the solubility (mole fraction) (in acetonitrile, 288.15 K) was 2.06e-05, the solubility (mole fraction) (in acetonitrile, 293.15 K) was 2.36e-05 and the solubility (mole fraction) (in acetonitrile, 298.15 K) was 2.68e-05. It also gave a solubility (mole fraction) (in acetonitrile, 303.15 K) of 3.06e-05, a solubility (mole fraction) (in acetonitrile, 308.15 K) of 3.47e-05 and a solubility (mole fraction) (in acetonitrile, 313.15 K) of 3.99e-05. It also gave a solubility (mole fraction) (in ethanol, 273.15 K) of 4.24e-05, a solubility (mole fraction) (in ethanol, 278.15 K) of 4.62e-05 and a solubility (mole fraction) (in ethanol, 283.15 K) of 5.02e-05. It also gave a solubility (mole fraction) (in ethanol, 288.15 K) of 5.44e-05, a solubility (mole fraction) (in ethanol, 293.15 K) of 5.92e-05 and a solubility (mole fraction) (in ethanol, 298.15 K) of 6.41e-05. For the same compound, the solubility (mole fraction) (in ethanol, 303.15 K) was 6.99e-05, the solubility (mole fraction) (in ethanol, 308.15 K) was 7.62e-05 and the solubility (mole fraction) (in ethanol, 313.15 K) was 8.36e-05. For the same compound, the solubility (mole fraction) (in ethyl acetate, 273.15 K) was 0.000266, the solubility (mole fraction) (in ethyl acetate, 278.15 K) was 0.000308 and the solubility (mole fraction) (in ethyl acetate, 283.15 K) was 0.000361. It also gave a solubility (mole fraction) (in ethyl acetate, 288.15 K) of 0.000415, a solubility (mole fraction) (in ethyl acetate, 293.15 K) of 0.000468 and a solubility (mole fraction) (in ethyl acetate, 298.15 K) of 0.000533. For the same compound, the solubility (mole fraction) (in ethyl acetate, 303.15 K) was 0.000601, the solubility (mole fraction) (in ethyl acetate, 308.15 K) was 0.000684 and the solubility (mole fraction) (in ethyl acetate, 313.15 K) was 0.000768. For the same compound, the solubility (mole fraction) (in isopropanol, 273.15 K) was 2.01e-05, the solubility (mole fraction) (in isopropanol, 278.15 K) was 2.39e-05 and the solubility (mole fraction) (in isopropanol, 283.15 K) was 2.8e-05. It also gave a solubility (mole fraction) (in isopropanol, 288.15 K) of 3.24e-05, a solubility (mole fraction) (in isopropanol, 293.15 K) of 3.65e-05 and a solubility (mole fraction) (in isopropanol, 298.15 K) of 4.12e-05. For the same compound, the solubility (mole fraction) (in isopropanol, 303.15 K) was 4.62e-05, the solubility (mole fraction) (in isopropanol, 308.15 K) was 5.2e-05 and the solubility (mole fraction) (in isopropanol, 313.15 K) was 5.82e-05. For the same compound, the solubility (mole fraction) (in methanol, 273.15 K) was 3.69e-05, the solubility (mole fraction) (in methanol, 278.15 K) was 3.99e-05 and the solubility (mole fraction) (in methanol, 283.15 K) was 4.28e-05. For the same compound, the solubility (mole fraction) (in methanol, 288.15 K) was 4.57e-05, the solubility (mole fraction) (in methanol, 293.15 K) was 4.86e-05 and the solubility (mole fraction) (in methanol, 298.15 K) was 5.14e-05. For the same compound, the solubility (mole fraction) (in methanol, 303.15 K) was 5.54e-05, the solubility (mole fraction) (in methanol, 308.15 K) was 5.94e-05 and the solubility (mole fraction) (in methanol, 313.15 K) was 6.33e-05. For the same compound, the solubility (mole fraction) (in n-butanol, 273.15 K) was 7.43e-05, the solubility (mole fraction) (in n-butanol, 278.15 K) was 8.03e-05 and the solubility (mole fraction) (in n-butanol, 283.15 K) was 8.71e-05. For the same compound, the solubility (mole fraction) (in n-butanol, 288.15 K) was 9.47e-05, the solubility (mole fraction) (in n-butanol, 293.15 K) was 0.000102 and the solubility (mole fraction) (in n-butanol, 298.15 K) was 0.000111. It also gave a solubility (mole fraction) (in n-butanol, 303.15 K) of 0.00012, a solubility (mole fraction) (in n-butanol, 308.15 K) of 0.000132 and a solubility (mole fraction) (in n-butanol, 313.15 K) of 0.000143. For the same compound, the solubility (mole fraction) (in n-propanol, 273.15 K) was 5.94e-05, the solubility (mole fraction) (in n-propanol, 278.15 K) was 6.58e-05 and the solubility (mole fraction) (in n-propanol, 283.15 K) was 7.33e-05. The solubility (mole fraction) (in n-propanol, 288.15 K) was 8.16e-05, the solubility (mole fraction) (in n-propanol, 293.15 K) was 8.97e-05 and the solubility (mole fraction) (in n-propanol, 298.15 K) was 9.97e-05. It also gave a solubility (mole fraction) (in n-propanol, 303.15 K) of 0.000111, a solubility (mole fraction) (in n-propanol, 308.15 K) of 0.000123 and a solubility (mole fraction) (in n-propanol, 313.15 K) of 0.000137.
